SMILES strings stand for the structures. Read-outs that look alike come from different tables or passages of the source.

Experiment [1] concerns the target T1, PRMT5 (Homo sapiens, UniProt O14744).
T1 construct: purchased Viva (custom protein)
In words: PRMT5 biochemical IC50 assay with no cofactor. An excerpt: Table 1 indicates IC50 values (μM) against PRMT5 for exemplary compounds in the presence of SAM as cofactor, with no cofactor, and with MTA as cofactor, respectively (columns 4-6). […] Ki values can be calculated from the IC50 values as described in the Examples section. As detailed in the Examples section, for the assay performed in the presence of SAM, IC50=Ki×1.5 (Ki=IC50/1.5).

Experiment [2] deals with HAP1 MTAP-deleted cell line. The experiment is described as follows: SDMA in-cell western assay, HAP1 MTAP-deleted. It counts as cell-based. The conditions noted are these: for IC50: Homo sapiens; for MTAP intact/deleted ratio: SDMA in-cell western. The essentials: (§1)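 Compounds were tested in HAP1 cells differing only in MTAP status (endogenous expression versus null). Cellular SDMA levels were then measured by in-cell western, giving an IC50 in each background.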

Experiment [3] addresses T1, PRMT5. In words: PRMT5 biochemical IC50 assay with MTA as cofactor.
For experiment [4], the target named is T1, PRMT5. In words: PRMT5 biochemical IC50 assay with SAM as cofactor.
For experiment [5], the system named is HAP1 MTAP-deleted cell line. The experiment is described as follows: Viability assay, MTAP-deleted cell line. It counts as cell-based. As to conditions: Homo sapiens. An excerpt:
Table 1 additionally indicates IC50 values in a viability assay for the MTAP-deleted cell line (column 10), indicating the effect of treatment with compound on cell survival.

Experiment [6] concerns HAP1 MTAP-intact cell line. In words: SDMA in-cell western assay, HAP1 MTAP-intact. It counts as cell-based. The conditions noted are these: Homo sapiens. The essentials:
as §1

The mark [7] stands for this setting: PRMT5, no cofactor, read-out: No Cofactor/rel IC50.
Where [8] appears, read: HAP1, SDMA in-cell western, HAP1 MTAP-deleted, read-out: HAP 1 MTAP deleted IC50.
Setting [9] is: IC50 ratio HAP1 MTAP-intact / HAP1 MTAP-deleted.
Setting [10] is: PRMT5, MTA as cofactor, read-out: MTA IC50.
The mark [11] stands for this setting: PRMT5, SAM as cofactor, read-out: SAM IC50.
[12] abbreviates: HAP1, viability IC50, MTAP-deleted cell line, read-out: HAP1 MTAP deleted viability.
Setting [13] is: HAP1, SDMA in-cell western, HAP1 MTAP-intact, read-out: MTAP HAP1 intact IC50.
Where [14] appears, read: PRMT5, no cofactor, read-out: No Cofactor/ rel IC50.
Setting [15] is: HAP1, viability assay, MTAP-deleted cell line, read-out: HAP1 MTAP deleted viability.
[16] abbreviates: HAP1, SDMA in-cell western, HAP1 MTAP-deleted, read-out: HAP1 MTAP deleted IC50.
[17] abbreviates: HAP1, viability assay, HAP1 MTAP-deleted, read-out: HAP1 MTAP deleted viability.

T1 sequence (O14744 whole entry): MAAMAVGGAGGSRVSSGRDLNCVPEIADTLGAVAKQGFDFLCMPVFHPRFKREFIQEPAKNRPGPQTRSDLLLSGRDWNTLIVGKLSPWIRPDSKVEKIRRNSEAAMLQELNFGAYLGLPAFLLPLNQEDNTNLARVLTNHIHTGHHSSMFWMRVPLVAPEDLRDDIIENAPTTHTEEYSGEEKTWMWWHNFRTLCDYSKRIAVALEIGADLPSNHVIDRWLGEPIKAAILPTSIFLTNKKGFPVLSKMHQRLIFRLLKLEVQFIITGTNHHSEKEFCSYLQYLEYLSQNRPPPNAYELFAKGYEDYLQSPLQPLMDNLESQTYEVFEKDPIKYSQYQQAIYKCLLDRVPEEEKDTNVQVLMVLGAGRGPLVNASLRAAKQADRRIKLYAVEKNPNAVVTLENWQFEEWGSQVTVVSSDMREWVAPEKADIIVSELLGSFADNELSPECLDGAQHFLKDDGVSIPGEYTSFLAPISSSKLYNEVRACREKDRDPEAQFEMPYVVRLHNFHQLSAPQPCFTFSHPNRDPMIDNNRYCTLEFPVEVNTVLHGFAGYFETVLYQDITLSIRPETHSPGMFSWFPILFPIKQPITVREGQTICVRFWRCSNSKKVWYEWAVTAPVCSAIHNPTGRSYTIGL
T1 sequence (Q9BQA1 whole entry partner): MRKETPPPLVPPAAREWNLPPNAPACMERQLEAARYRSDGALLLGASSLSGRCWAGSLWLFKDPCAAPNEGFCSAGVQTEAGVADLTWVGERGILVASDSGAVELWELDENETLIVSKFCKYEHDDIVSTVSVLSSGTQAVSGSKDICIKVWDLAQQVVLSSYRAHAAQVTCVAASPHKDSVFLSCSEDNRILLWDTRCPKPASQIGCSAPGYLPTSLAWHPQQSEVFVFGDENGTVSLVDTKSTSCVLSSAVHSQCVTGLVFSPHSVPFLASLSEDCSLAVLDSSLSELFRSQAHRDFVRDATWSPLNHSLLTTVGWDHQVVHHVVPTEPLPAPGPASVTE

Take `C[C@@H]1CC[C@@H](c2cccc(S(N)(=O)=O)c2)N(C(=O)C(=O)Nc2cncc(C(N)=O)c2)C1` (racemic) [Compound 661, 5-(2-(5-methyl-2-(3-sulfamoylphenyl)piperidin-1-yl)-2-oxoacetamido)nicotinamide]: the IC50 on PRMT5 [1] (setting [7]) was 0.05 to 0.5 µM; in experiment [2] (setting [8]) it was > 1 µM; at PRMT5 [3] (setting [10]), < 0.05 µM; at PRMT5 [4] (setting [11]) it was 0.05 to 0.5 µM; in experiment [5] (setting [12]), > 10 µM; in experiment [6] (setting [13]), > 1 µM. Further, in experiment [2] (setting [9]), the MTAP intact/deleted ratio entry is “B (an IC50 ratio greater than or equal to 3 fold but lower than 10 fold)”.

Regarding `Cc1cc(C)n(-c2ccc([C@@H]3CC[C@@H](C)CN3C(=O)C(=O)Nc3cncc(C(N)=O)c3)cc2)n1` (racemic) [Compound 157, rac-5-{2-[(2R,5S)-2-[4-(3,5-Dimethyl-1H-pyrazol-1-yl)phenyl]-5-methylpiperidin-1-yl]-2-oxoacetamido}pyridine-3-carboxamide], the IC50 is 0.05 to 0.5 µM at PRMT5 [1] (setting [14]); > 1 µM in experiment [2] (setting [8]); 0.05 to 0.5 µM at PRMT5 [3] (setting [10]); 0.05 to 0.5 µM at PRMT5 [4] (setting [11]); > 10 µM in experiment [5] (setting [15]); > 1 µM in experiment [6] (setting [13]). For the same compound, the “MTAP intact/deleted ratio” value in experiment [2] (setting [9]) is recorded as “B (an IC50 ratio greater than or equal to 3 fold but lower than 10 fold)”.

In the case of `Cc1cc(NC(=O)C(=O)N2C[C@H](C)CC[C@H]2c2ccc3nn(C)cc3c2)cnc1N` (racemic) [Compound 912], the IC50 at PRMT5 [1] (setting [7]) was 0.05 to 0.5 µM; in experiment [2] (setting [8]), < 0.1 µM; on PRMT5 [3] (setting [10]), 0.05 to 0.5 µM; at PRMT5 [4] (setting [11]), 0.05 to 0.5 µM; in experiment [5] (setting [15]), < 1 µM; in experiment [6] (setting [13]), 0.1 to 1 µM. Besides, the MTAP intact/deleted ratio entry in experiment [2] (setting [9]) was “A (an IC50 ratio greater than or equal to 10 fold)”.

Take `Cc1cc(NC(=O)C(=O)N2C[C@H](C)CC[C@H]2C2CCCNC2)cnc1N` (mixture of isomers) [Compound 744, N-(6-amino-5-methyl-3-pyridyl)-2-[(2R,5S)-5-methyl-2-(3-piperidyl)-1-piperidyl]-2-oxo-acetamide]: the IC50 on PRMT5 [1] (setting [7]) is > 0.5 µM; in experiment [2] (setting [16]), > 1 µM; on PRMT5 [3] (setting [10]) it was 0.05 to 0.5 µM; at PRMT5 [4] (setting [11]) it was > 0.5 µM; in experiment [5] (setting [17]) it was > 10 µM; in experiment [6] (setting [13]) it was > 1 µM. In addition, in experiment [2] (setting [9]), the MTAP intact/deleted ratio entry is reported as “C (an IC50 ratio of less than 3 fold)”.

On to `CCc1cc(NC(=O)C(=O)N2C[C@@H](C)CC[C@@H]2c2ccc(N3CCC(CN4CCCC4)CC3)cc2)cnc1N` [Compound 1276, N-(6-Amino-5-ethylpyridin-3-yl)-2-[(2R,5S)-5-methyl-2-(4-{4-[(pyrrolidin-1-yl)methyl]piperidin-1-yl}phenyl)piperidin-1-yl]-2-oxoacetamide], for which the IC50 at PRMT5 [1] (setting [14]) was < 0.05 µM; in experiment [2] (setting [8]) it was < 0.1 µM; at PRMT5 [3] (setting [10]) it was < 0.05 µM; at PRMT5 [4] (setting [11]), < 0.05 µM; in experiment [5] (HAP1, viability, HAP1 MTAP-deleted cell line, read-out: HAP1 MTAP deleted viability), < 1 µM; in experiment [6] (setting [13]), 0.1 to 1 µM. The “MTAP intact/deleted ratio” value in experiment [2] (setting [9]) is on record as “A (an IC50 ratio greater than or equal to 10 fold)”.

`Cc1cc(NC(=O)C(=O)N2C[C@H](C)CC[C@H]2c2ccc(S(C)(=O)=O)cc2)cnc1C` (racemic) [Compound 649, N-(5,6-dimethyl-3-pyridyl)-2-[(2R,5S)-5-methyl-2-(4-methylsulfonylphenyl)-1-piperidyl]-2-oxo-acetamide]: the IC50 on PRMT5 [1] (setting [7]) was 0.05 to 0.5 µM; in experiment [2] (setting [8]), > 1 µM; on PRMT5 [3] (setting [10]), 0.05 to 0.5 µM; at PRMT5 [4] (setting [11]) it was > 0.5 µM; in experiment [5] (setting [12]), > 10 µM; in experiment [6] (setting [13]), > 1 µM. For the same compound, in experiment [2] (setting [9]), the MTAP intact/deleted ratio result is listed as “B (an IC50 ratio greater than or equal to 3 fold but lower than 10 fold)”.

Turning to `C[C@@H]1CC[C@@H](c2ccc(Cl)c(Cl)c2)N(C(=O)C(=O)Nc2cncc(C(N)=O)c2)C1` (single isomer, unassigned) [Compound 489], the IC50 is > 0.5 µM on PRMT5 [1] (setting [7]); > 1 µM in experiment [2] (setting [16]); > 0.5 µM at PRMT5 [3] (setting [10]); > 0.5 µM on PRMT5 [4] (setting [11]); > 10 µM in experiment [5] (setting [15]); > 1 µM in experiment [6] (setting [13]). Moreover, the MTAP intact/deleted ratio result in experiment [2] (setting [9]) is given as “C (an IC50 ratio of less than 3 fold)”.

For the compound `COc1ncc(NC(=O)C(=O)N2C[C@@H](C)CC[C@H]2c2ccc(C)cn2)cc1C(N)=O` (racemic) [Compound 886, 2-Methoxy-5-[[2-[(2R,5R)-5-methyl-2-(5-methyl-2-pyridyl)-1-piperidyl]-2-oxo-acetyl]amino]pyridine-3-carboxamide], the IC50 on PRMT5 [1] (setting [7]) was > 0.5 µM; in experiment [2] (setting [8]) it was > 1 µM; at PRMT5 [3] (setting [10]), 0.05 to 0.5 µM; on PRMT5 [4] (setting [11]), > 0.5 µM; in experiment [5] (setting [15]) it was > 10 µM; in experiment [6] (setting [13]), > 1 µM. Also, the MTAP intact/deleted ratio result in experiment [2] (setting [9]) was “B (an IC50 ratio greater than or equal to 3 fold but lower than 10 fold)”.

For `Cc1cc(NC(=O)C(=O)N2CCCCC2c2ccncc2)cnc1N` (racemic) [Compound 36, N-(6-Amino-5-methyl-3-pyridyl)-2-oxo-2-[2-(4-pyridyl)-1-piperidyl]acetamide], the IC50 is 0.05 to 0.5 µM on PRMT5 [1] (setting [14]); 0.1 to 1 µM in experiment [2] (setting [8]); < 0.05 µM on PRMT5 [3] (setting [10]); 0.05 to 0.5 µM on PRMT5 [4] (setting [11]); > 10 µM in experiment [5] (setting [15]); > 1 µM in experiment [6] (setting [13]). Further, in experiment [2] (setting [9]), the “MTAP intact/deleted ratio” value is given as “A (an IC50 ratio greater than or equal to 10 fold)”.

In the case of `CCc1cc(NC(=O)C(=O)N2C[C@@H](C)CC[C@@H]2c2ccc3sc(C4(C)CCN(C)CC4)nc3c2)cnc1N` [Compound 1171, N-(6-amino-5-ethylpyridin-3-yl)-2-((2R,5S)-2-(2-(1,4-dimethylpiperidin-4-yl)benzo[d]thiazol-5-yl)-5-methylpiperidin-1-yl)-2-oxoacetamide], the IC50 on PRMT5 [1] (No Cofactor/rel IC50, PRMT5, no cofactor) was < 0.05 µM; in experiment [2] (HAP1, read-out: HAP1 MTAP deleted IC50), < 0.1 µM; at PRMT5 [3] (MTA IC50, PRMT5, MTA as cofactor) it was < 0.05 µM; on PRMT5 [4] (SAM IC50, PRMT5, SAM as cofactor), < 0.05 µM; in experiment [5] (HAP1, read-out: HAP1 MTAP deleted viability), < 1 µM; in experiment [6] (HAP1, read-out: MTAP HAP1 intact IC50), < 0.1 µM. Moreover, the MTAP intact/deleted ratio result in experiment [2] (IC50 ratio HAP1 MTAP-intact vs HAP1 MTAP-deleted) was “A (an IC50 ratio greater than or equal to 10 fold)”.

For `CC(=O)Nc1ccc([C@H]2CC[C@H](C)CN2C(=O)C(=O)Nc2cncc(C(N)=O)c2)s1` (single isomer, unassigned) [Compound 686], the IC50 at PRMT5 [1] (setting [7]) is > 0.5 µM; in experiment [2] (setting [8]), > 1 µM; at PRMT5 [3] (setting [10]) it was > 0.5 µM; at PRMT5 [4] (setting [11]), > 0.5 µM; in experiment [5] (setting [12]), > 10 µM; in experiment [6] (setting [13]) it was > 1 µM. For the same compound, the MTAP intact/deleted ratio result in experiment [2] (setting [9]) is “C (an IC50 ratio of less than 3 fold)”.

For `CCc1cc(NC(=O)C(=O)N2C[C@H](C)CC[C@H]2c2ccc(-c3cncs3)cc2)cnc1N` (single isomer, unassigned) [Compound 841, N-(6-amino-5-ethylpyridin-3-yl)-2-(5-methyl-2-(4-(thiazol-5-yl)phenyl)piperidin-1-yl)-2-oxoacetamide], the IC50 on PRMT5 [1] (setting [7]) is < 0.05 µM; in experiment [2] (setting [16]), < 0.1 µM; on PRMT5 [3] (setting [10]), < 0.05 µM; on PRMT5 [4] (setting [11]), 0.05 to 0.5 µM; in experiment [5] (setting [17]) it was < 1 µM; in experiment [6] (setting [13]), 0.1 to 1 µM. For the same compound, the MTAP intact/deleted ratio entry in experiment [2] (setting [9]) is reported as “A (an IC50 ratio greater than or equal to 10 fold)”.

For `C[C@@H]1C[C@H](F)[C@@H](c2ccc(F)cc2)N(C(=O)C(=O)Nc2cncc(C(N)=O)c2)C1` (racemic) [Compound 879, 5-[[2-[(2R,3S,5R)-3-fluoro-2-(4-fluorophenyl)-5-methyl-1-piperidyl]-2-oxo-acetyl]amino]pyridine-3-carboxamide], the IC50 was 0.05 to 0.5 µM at PRMT5 [1] (setting [7]); 0.1 to 1 µM in experiment [2] (setting [16]); < 0.05 µM at PRMT5 [3] (setting [10]); 0.05 to 0.5 µM on PRMT5 [4] (setting [11]); 1 to 10 µM in experiment [5] (setting [17]); > 1 µM in experiment [6] (setting [13]). Further, the MTAP intact/deleted ratio entry in experiment [2] (setting [9]) was “A (an IC50 ratio greater than or equal to 10 fold)”.

Consider `Cc1c(NC(=O)C(=O)N2C[C@H](C)CC[C@H]2c2ccccc2)cnc(N)c1C` (single isomer, unassigned) [Compound 367], for which the IC50 at PRMT5 [1] (setting [7]) was > 0.5 µM; in experiment [2] (setting [16]), > 1 µM; on PRMT5 [3] (setting [10]), 0.05 to 0.5 µM; at PRMT5 [4] (setting [11]), > 0.5 µM; in experiment [5] (setting [15]), > 10 µM; in experiment [6] (setting [13]) it was > 1 µM. Moreover, the MTAP intact/deleted ratio entry in experiment [2] (setting [9]) was “C (an IC50 ratio of less than 3 fold)”.
